Data reported in patent US20240400549A1, “COMPOUNDS AND THEIR USES FOR TREATING NEURODEGENERATIVE DISEASE” (Academia Sinica, priority 2021, published 2024).

Legend:
[1] = molecular target: T1, endogenous TDP-43 protein (FL-TDP-43) (Mus musculus, UniProt Q921F2); assay: Level of endogenous TDP-43 protein (FL-TDP-43) in Neuro-2a cells; type: cell-based; conditions: mock control 0.91±0.07
T1 construct: the level of endogenous TDP-43 protein (FL-TDP-43); endogenous in cells; host or cells: Neuro-2a (mouse neuroblastoma), also transfected with eGFP-C-TDP-43
T1 sequence (Q921F2 whole entry): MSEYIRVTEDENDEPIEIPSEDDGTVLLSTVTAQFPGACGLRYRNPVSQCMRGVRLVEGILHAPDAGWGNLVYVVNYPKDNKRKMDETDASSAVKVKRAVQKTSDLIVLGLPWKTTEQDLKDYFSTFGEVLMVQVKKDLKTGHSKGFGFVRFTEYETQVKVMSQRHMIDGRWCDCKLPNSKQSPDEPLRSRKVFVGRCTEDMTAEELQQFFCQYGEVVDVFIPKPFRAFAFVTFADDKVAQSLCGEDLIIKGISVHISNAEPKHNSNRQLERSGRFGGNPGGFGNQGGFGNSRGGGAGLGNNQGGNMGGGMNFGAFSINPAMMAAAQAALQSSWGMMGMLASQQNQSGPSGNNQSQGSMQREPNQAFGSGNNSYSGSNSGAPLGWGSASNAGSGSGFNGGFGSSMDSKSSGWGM
Experimental: Mouse neuroblastoma cell line (Neuro-2a) were cultured in Dulbecco's modified Eagle's medium (DMEM; Gibco) containing 2×10^−3 M glutamine, 10% heat inactivated fetal bovine serum (FBS), and 100 U mL^−1 penicillin-streptomycin (Gibco) at 37° C. in a humidified incubator containing 5% CO2. Alternatively, Neuro-2a cells were cultured in Dulbecco's modified Eagle's medium (DMEM; Invitrogen, Carlsbad, CA, USA) supplemented with 10% heat-inactivated FBS. The cells were incubated in a humidified incubator at 37° C. with 10% CO2. Transfection was performed using T-Pro NTR II (Ji-Feng Biotechnology, Taiwan) following the manufacturer's protocol.
Neuro-2a cells were seeded in a 6-well plate at a concentration of 2×10^5 cells/well and incubated overnight. Once the cells were attached, Neuro-2a cells were transfected with the eGFP-C-TDP-43 plasmid (2.2 μg) using Turbofect transfection reagent (Invitrogen) and treated with or without 5 μM test compound after 2 h transfection. After incubation for another 22 h, the transfected cells were harvested by RIPA buffer containing protease inhibitor (Roche) and sonicated on ice for 10 seconds. […] Aggregated eGFP-C-TDP-43 protein trapped by the CA membranes was determined by immunoblotting. […]
Proteins were separated using 12% Tris-glycine SDS-PAGE. […] The signals were visualized with luminescence (iBright™ FL1000 instrument, Invitrogen). […]

[2] = molecular target: T2, eGFP-C-TDP-43 oligomeric intermediates (Homo sapiens, UniProt Q13148); assay: Size-exclusion chromatography and slot blot with oligomer-specific antibody A11; type: cell-based, mouse; conditions: lysate of Neuro-2a cells overexpressing eGFP-C-TDP-43, 48 h
T2 construct: expressed in transfected cells; host or cells: Neuro-2a (mouse neuroblastoma)
T2 sequence (Q13148 208-414 limits assumed): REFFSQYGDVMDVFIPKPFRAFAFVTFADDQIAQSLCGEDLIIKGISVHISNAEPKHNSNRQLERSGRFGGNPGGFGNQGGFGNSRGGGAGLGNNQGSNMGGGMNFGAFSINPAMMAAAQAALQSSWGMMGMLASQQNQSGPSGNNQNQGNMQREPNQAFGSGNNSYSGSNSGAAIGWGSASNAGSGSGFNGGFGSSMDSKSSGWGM

eGFP-C-TDP-43 = molecular target: T3, eGFP-C-TDP-43 (Homo sapiens, UniProt Q13148); assay: SDS-PAGE dose dependency of eGFP-C-TDP-43 degradation; type: cell-based, mouse; conditions: Neuro-2a cells
T3 construct: expressed in transfected cells; host or cells: Neuro-2a (mouse neuroblastoma)
T3 sequence (Q13148 208-414 limits assumed): as above
Experimental: Proteins were separated using 12% Tris-glycine SDS-PAGE. Proteins were transferred onto PVDF membrane (Millipore). Blots were blocked with 5% bovine serum albumin (BSA, Sigma) in 0.1% PBST for at least 1 hour. After blocking, blots were subjected to incubation with the primary antibodies TDP-43 (C-terminal) (1:1,000, Proteintech), TDP-43 (1:1,000, Abcam), p-TDP-43 (pS409/410) (1:1,000, Cosmo Bio), GFP (1:1,000, Abcam), All (1:1,000, Invitrogen), GAPDH (1:10,000, GeneTex), or β-actin (1:10,000, GeneTex) in 2% BSA and incubated overnight at 4° C. on a shaker. After washed with PBST, the blots were further incubated with HRP-labelled secondary antibodies (1:3,000, GeneTex) at room temperature for another 1 hour. The blots were washed and developed with electrochemiluminescence (ECL, Millipore). The signals were visualized with luminescence (iBright™ FL1000 instrument, Invitrogen).
Based on the amount of j-actin (internal control) on NC membrane, overexpression of eGFP-C-TDP-43 did induce a significant amount of C-TDP-43 species (mock control, 1.08±0.31, the black bar in FIG. 1, (B)) comparing with that in blank control of Neuro-2a cells (0.38±0.08, the white bar in FIG. 1, (B)). […]

With `CN(C)c1ccc(-c2nc3ccc(OCCOCCOCCNc4cccc5c4C(=O)N(C4CCC(=O)NC4=O)C5=O)cc3s2)cc1` (stereo not drawn) [I-1b, 4-((2-(2-(2-((2-(4-(dimethylamino)phenyl)benzo[d]thiazol-6-yl)oxy)ethoxy)ethoxy)ethyl)amino)-2-(2,6-dioxopiperidin-3-yl)isoindoline-1,3-dione] the “level of endogenous TDP-43 protein (FL-TDP-43)” value [1] was 1.11±0.14, the “A11 signal intensity in SEC fractions 9-11 (oligomeric intermediates)” value [2] was “significantly reduced” and the “degradation of eGFP-C-TDP-43, dose dependency” value (eGFP-C-TDP-43) was “degraded eGFP-C-TDP-43 in a dose-dependent manner”.
